Here are results for 1 compound from PMC4433267, “Corosolic Acid Inhibits Hepatocellular Carcinoma Cell Migration by Targeting the VEGFR2/Src/FAK Pathway” (PLoS ONE, 2015).

The assay addresses VEGFR2 (KDR) (Homo sapiens, UniProt P35968). Put plainly: ADP-Glo kinase assay with purified KDR (Promega V2681), […] ATP. In kind it is biochemical.

Chain of VEGFR2 (KDR) (P35968 20-1356): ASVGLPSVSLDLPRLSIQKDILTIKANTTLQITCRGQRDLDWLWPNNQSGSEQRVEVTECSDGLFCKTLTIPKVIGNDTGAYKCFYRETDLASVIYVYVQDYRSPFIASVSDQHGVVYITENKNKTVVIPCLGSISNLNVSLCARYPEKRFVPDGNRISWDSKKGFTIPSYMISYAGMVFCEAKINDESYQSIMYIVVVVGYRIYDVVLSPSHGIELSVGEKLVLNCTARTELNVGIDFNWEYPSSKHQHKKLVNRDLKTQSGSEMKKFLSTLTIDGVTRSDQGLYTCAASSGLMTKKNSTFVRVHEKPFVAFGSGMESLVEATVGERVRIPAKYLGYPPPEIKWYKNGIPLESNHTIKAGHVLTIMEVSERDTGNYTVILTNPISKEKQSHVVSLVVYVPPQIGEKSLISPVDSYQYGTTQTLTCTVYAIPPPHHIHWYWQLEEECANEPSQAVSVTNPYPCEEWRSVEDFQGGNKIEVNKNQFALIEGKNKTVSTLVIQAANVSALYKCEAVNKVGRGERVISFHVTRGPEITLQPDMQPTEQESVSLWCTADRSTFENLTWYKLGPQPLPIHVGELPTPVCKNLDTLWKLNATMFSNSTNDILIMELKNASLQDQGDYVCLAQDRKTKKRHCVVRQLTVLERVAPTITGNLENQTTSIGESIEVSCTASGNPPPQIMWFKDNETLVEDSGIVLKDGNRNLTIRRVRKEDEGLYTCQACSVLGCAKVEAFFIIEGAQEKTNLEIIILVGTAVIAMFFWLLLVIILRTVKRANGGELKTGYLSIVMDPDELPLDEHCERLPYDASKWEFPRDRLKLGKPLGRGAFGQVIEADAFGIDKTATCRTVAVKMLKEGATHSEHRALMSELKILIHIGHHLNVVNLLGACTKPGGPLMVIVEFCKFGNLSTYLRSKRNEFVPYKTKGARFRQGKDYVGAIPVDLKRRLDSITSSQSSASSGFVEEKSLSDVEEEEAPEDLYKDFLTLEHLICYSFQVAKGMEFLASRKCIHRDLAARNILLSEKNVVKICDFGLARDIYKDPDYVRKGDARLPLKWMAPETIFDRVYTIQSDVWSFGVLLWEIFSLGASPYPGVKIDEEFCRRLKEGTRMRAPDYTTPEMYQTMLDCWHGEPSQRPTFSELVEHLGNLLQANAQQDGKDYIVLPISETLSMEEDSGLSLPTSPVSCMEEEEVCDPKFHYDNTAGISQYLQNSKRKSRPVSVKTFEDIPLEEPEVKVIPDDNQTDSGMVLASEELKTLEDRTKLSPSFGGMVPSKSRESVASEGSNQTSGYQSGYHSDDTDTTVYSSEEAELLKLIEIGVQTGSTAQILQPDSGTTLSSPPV

`C[C@H]1[C@H](C)CC[C@]2(C(=O)O)CC[C@]3(C)C(=CC[C@@H]4[C@@]5(C)C[C@@H](O)[C@H](O)C(C)(C)[C@@H]5CC[C@]43C)[C@H]12` [CA, corosolic acid] came in with an IC50 of 950 nM.
